Source: US8084489B2 (Eli Lilly and Company, priority 2005, dated 2011)

Target: cloned human glucagon receptor (Homo sapiens, UniProt P47871)
Experiment: Glucagon Receptor (hGlucR) Binding Assay
Protocol: This plasmid DNA was transfected into 293 HEK cells and selected with 200 ug/ml Hygromycin.
Crude plasma membranes are prepared using cells from suspension culture. The cells are lysed on ice in hypotonic buffer containing 25 mM Tris HCL, pH 7.5, 1 mM MgCl2, DNAse1, 20 u/ml, and Roche Complete Inhibitors-without EDTA. The cell suspension is homogenized with a glass dounce homogenizer using a Teflon pestle for 25 strokes. The homogenate is centrifuged at 4 degrees C. at 1800×g for 15 mins. The supernate is collected and the pellet is resuspended in hypotonic buffer and rehomogenized. The mixture is centrifuged at 1800×g for 15 mins. The second supernate is combined with the first supernate. The combined supernates are recentrifuged at 1800×g for 15 mins to clarify. The clarified supernate is transferred to high speed tubes and centrifuged at 25000×g for 30 minutes at 4 degrees C. The membrane pellet is resuspended in homogenization buffer and stored as frozen aliquots at −80 degree C. freezer until needed.
The specific activity is 2200 Ci/mmol.
The binding buffer contains 25 mM Hepes, pH 7.4, 2.5 mM CaCl2, 1 mM MgCl2, 0.1% fatty acid free BSA, (ICN), 0.003% tween-20, and Roche Complete Inhibitors without EDTA. […] Test compounds are dissolved in DMSO and serially diluted in DMSO. […] Plates are read with a MicroBeta after 14 hours of settling time at room temp. […]

cloned human glucagon receptor, sequence (P47871 26-477): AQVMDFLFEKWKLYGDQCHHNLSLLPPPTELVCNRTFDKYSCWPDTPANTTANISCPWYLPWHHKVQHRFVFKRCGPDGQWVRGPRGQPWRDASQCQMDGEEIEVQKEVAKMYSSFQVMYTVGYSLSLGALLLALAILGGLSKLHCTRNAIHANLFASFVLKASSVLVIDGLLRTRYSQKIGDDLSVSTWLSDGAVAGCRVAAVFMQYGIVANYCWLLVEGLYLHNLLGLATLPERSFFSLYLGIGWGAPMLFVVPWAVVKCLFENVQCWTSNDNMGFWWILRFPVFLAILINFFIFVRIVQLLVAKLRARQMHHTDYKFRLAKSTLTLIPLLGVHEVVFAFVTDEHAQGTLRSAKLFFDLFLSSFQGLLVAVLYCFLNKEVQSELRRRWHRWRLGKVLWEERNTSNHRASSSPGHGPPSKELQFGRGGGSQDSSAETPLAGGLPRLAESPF

SMILES	Ki [nM]
CC(C)CC(Oc1ccc(-c2ccc(C(C)(C)C)cc2)nc1)c1ccc(C(=O)NCCC(=O)O)s1 (centres unmarked)	296
CC(C)CC(Oc1ccc(-c2ccc(C(F)(F)F)cc2)cc1)c1ccc(C(=O)NCCC(=O)O)s1 (centres unmarked)	390
